Results from paper PMC9576799, “Discovery of small molecule inhibitors that effectively disrupt IQGAP1-Cdc42 interaction in breast cancer cells” (Scientific Reports, 2022).

Assays:
[1] = tested on: filopodia in MDA-MB-231 cells; test: Filopodia quantification by confocal microscopy (FiloQuant); format: cell-based, human; conditions: 50 μM 2 h, EGF-stimulated
Experimental: MDA-MB231 cells were cultured in 24-well plates containing glass coverslips. When 60% confluent, cells were serum starved for 16 h, preincubated with 50 μM compound NCGC00131308 for 2 h, then incubated with 100 ng/mL epidermal growth factor (EGF) or vehicle for 10 min. Cells were fixed with 4% PFA and stained with Alexa Fluor 488 Phalloidin (Invitrogen™#A12379) and Hoechst 33342 (BD Biosciences #561908) to visualize F-actin and DNA, respectively. Coverslips were mounted with ProLong glass antifade mounting medium (Invitrogen), then imaged with a Zeiss LSM880 confocal microscope using a 63× objective lens. Cells and filopodia were segmented using FIJI/ImageJ[49]. Individual filopodia were segmented using the FiloQuant FIJI plugin[50]. Cells were segmented by Voronoi tessellation using Hoechst 33342 stained nuclei as seed points. The segmented images were quantified using the scikit-image Python package. The following geometric and spatial parameters of the filopodia were quantified: (1) the branch length of each filopodial segment, (2) cumulative area of each segment, (3) eccentricity, defined as the […], and (4) the number of filopodial segments per unit exposed cell membrane. Further data handling and plotting were done using the tidyverse R package. At least 200 cells were analyzed for each condition.

MCF7-siIQ8 cells = test: CellTiter-Glo cell viability assay, IQGAP1 knockdown MCF7; format: cell-based; conditions: Homo sapiens
Experimental: Selected hit compounds were tested in CellTiterGlo cell viability assays to determine their cytotoxic effect on IQGAP1 knockout and control MCF7 cells. Prior to the assay, we assessed cell proliferation to keep both cell lines at similar exponential growth rates within 80 h after plating. For this purpose, the cells were plated onto 384-well clear bottom black plates (Perkin Elmer, Ultra) at various cell densities (between 625 and 10,000 cells/50µL/well), spun down for 15 s, and placed into Incucyte SX5 (Essen BioScience) for automated bright-field channel reading every 4 h. […] For the cytotoxicity assays, cells were harvested with 0.05% trypsin, spun down at 125xg for 5 min, re-suspended in fresh DMEM supplemented with 5% (v/v) FBS, and seeded into 1536-well white solid bottom tissue culture-treated plates (Greiner One, #789173-F) at 600 cells/5µL/well for knockout cells and 300 cells/5µL/well for control cells using a Multidrop Combi dispenser (Thermo Fisher Scientific Inc.). […]
Plates and reagents were equilibrated to room temperature and then 5 µL/well of CellTiter Glo (Promega, #G7570) reagent was dispensed with a Multidrop Combi dispenser to the assay plates. After incubation for 10 min at ambient temperature, the luminescence signal was read with a ViewLux instrument (Perkin Elmer) with one second exposure. […]

SMILES	filopodia area [1]	filopodia length [1]	filopodia shape (eccentricity) [1]	number of filopodia per cell [1]	Emax (MCF7-siIQ8 cells; MCF7, 72 h, read-out: cytotoxicity efficacy) [%]	IC50 (MCF7-siIQ8 cells; IQGAP1 knockdown MCF7-siIQ8 cells, 72 h, read-out: cytotoxicity EC50) [nM]
CCN1CCN(c2ncc3c(n2)CCN(Cc2cc(Br)cs2)C3)CC1 [NCGC00131308]	significantly decreased	significantly decreased	reduced eccentricity	significantly decreased	–	–
Cc1cccc(NC(=O)c2c(NC(=O)C(F)(F)F)sc3c2CCCCC3)c1 [NCGC00098561]	–	–	–	–	~100	2240
